{
  "source": "paper PMC4125815",
  "about": "“Crystal structure of tRNA m^1A58 methyltransferase TrmI from Aquifex aeolicus in complex with S-adenosyl-L-methionine” (Journal of Structural and Functional Genomics, 2014)",
  "biological_target": "T1, A. aeolicus TrmI (Aquifex aeolicus, UniProt O66653)",
  "T1 construct": "gene aq_311",
  "T1 sequence (O66653 1-248)": "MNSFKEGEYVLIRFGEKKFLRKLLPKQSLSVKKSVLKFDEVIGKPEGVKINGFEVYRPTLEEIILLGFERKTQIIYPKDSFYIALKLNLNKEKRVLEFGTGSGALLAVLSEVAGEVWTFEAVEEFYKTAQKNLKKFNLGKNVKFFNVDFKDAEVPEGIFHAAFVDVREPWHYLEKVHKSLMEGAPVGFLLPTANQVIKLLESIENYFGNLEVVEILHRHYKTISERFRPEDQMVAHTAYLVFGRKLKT",
  "test": "X-ray crystal structure of the complex, […] Å",
  "assay_type": "binding",
  "conditions": "co-crystallised with 2 mM AdoMet, pH 8.4, 20 °C; methyl donor site in C-terminal domain, 4 AdoMet per tetramer",
  "data": [
    {"compound": "C[S+](CC[C@H](N)C(=O)O)C[C@H]1O[C@@H](n2cnc3c(N)ncnc32)[C@H](O)[C@@H]1O", "note": "(stereo partly shown) [AdoMet]", "values": [
      {"measurement": "X-ray crystal structure of the complex, 2.2 Å", "value": "The methyl donor AdoMet is bound in the C-terminal domain of the protein"}
    ]}
  ]
}
